Each block holds one compound with its values, some of them ahead of it.
Experiments:
tTGase [1] = molecular target: T1, tTGase (Homo sapiens, UniProt P21980); test: tTGase-induced α-synuclein aggregation in transfected COS-7 cells (detergent-insoluble fraction, Western blot); format: cell-based
T1 construct: expressed in transfected cells; host or cells: COS-7 (A2); HEK293T (A3); pSG5 expression vector
T1 sequence (P21980 1-687): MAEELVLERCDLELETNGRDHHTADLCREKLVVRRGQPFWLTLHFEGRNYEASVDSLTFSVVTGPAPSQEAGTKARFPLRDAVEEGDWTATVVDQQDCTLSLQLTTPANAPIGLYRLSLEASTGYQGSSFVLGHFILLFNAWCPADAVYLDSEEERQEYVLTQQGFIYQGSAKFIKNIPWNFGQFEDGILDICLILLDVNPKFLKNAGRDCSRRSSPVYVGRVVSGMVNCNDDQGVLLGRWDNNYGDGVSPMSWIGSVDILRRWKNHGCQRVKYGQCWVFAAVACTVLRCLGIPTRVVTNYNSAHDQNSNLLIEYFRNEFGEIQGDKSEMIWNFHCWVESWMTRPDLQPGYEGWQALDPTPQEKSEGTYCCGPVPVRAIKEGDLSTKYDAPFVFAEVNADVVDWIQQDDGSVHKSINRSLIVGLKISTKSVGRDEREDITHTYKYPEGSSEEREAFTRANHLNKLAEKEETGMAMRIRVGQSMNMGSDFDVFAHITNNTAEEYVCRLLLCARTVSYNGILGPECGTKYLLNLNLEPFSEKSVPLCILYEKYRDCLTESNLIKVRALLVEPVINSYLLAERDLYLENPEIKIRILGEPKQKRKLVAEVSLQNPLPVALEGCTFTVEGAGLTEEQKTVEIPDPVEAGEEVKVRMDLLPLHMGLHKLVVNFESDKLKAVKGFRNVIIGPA
Method: Suitable tTGase inhibitor compounds for use in the treatment methods and compositions of the invention can be also be assessed by a protocol referred to herein as ‘a standard in vivo tTGase inhibition assay’, set forth as follows: Cells (e.g., neurons, COS-7 cells, or HEK […] cells) are co-transfected with an α-synuclein and tTGase expression plasmids (1 μg each) using FuGene 6 reagent (Roche Molecular Biochemicals, Indianapolis, Ind.) for 6 hours and cultured in DMEM containing 10% FBS for 48 hours. Cells are then lysed in a buffer containing PBS with 1% Triton X-100 and a mixture of protease inhibitors (Roche Molecular Biochemicals). Cells are homogenized with 20 strokes in a Dounce homogenizer, centrifuged at 20,000×g at 4° C. for 30 minutes. The detergent-insoluble fraction is used in Western blot analysis using an anti-α-synuclein antibody as described above for the standard in vitro assay. The cells in the assay can be cultured in the presence or absence of a candidate compound to determine whether the candidate compound can inhibit the production of the high-molecular weight aggregates. This defined standard in vivo tTGase inhibition assay is exemplified in Examples 1 and 2 (including the materials and methods section) which follows.
α-Synuclein cDNA was cloned by PCR from human fetal brain cDNA library (Stratagene, La Jolla, Calif.) (Bennett, M. C. et al. (1999) J. Biol. Chem. 274:33855-33858) and subcloned into pcDNA3.1 (Invitrogen, Carlsbad, Calif.), and pTYB11 (New England Biolabs, Beverly, Mass.). tTGase cDNA was amplified by PCR from human liver cDNA library by using primers 5′-aagaattc[…]-3′ (SEQ ID NO:1) and 5′-aagaattc[…]-3′ (SEQ ID NO:2). Lowercase letters indicate additional nucleotides designed to facilitate cloning. The PCR product was inserted into pSG5 expression vector (Stratagene), and its sequence matched perfectly with the known cDNA sequence of human tTGase (Gentile, V. et al. (1991) J. Biol. Chem. 266:478-483). […] Mouse monoclonal tTGase antibody (CUB 7402) was purchased from DAKO (Carpinteria, Calif.). The rabbit polyclonal tTGase antibody was described in Kim. S. Y. et al. (1999) J. Biol. Chem. 274:30715-30721. Guinea pig liver tTGase, cystamine (CTM), and A23187 were purchased from Sigma (St. Louis, Mo.). Rabbit polyclonal α-synuclein antibodies were obtained from Sigma and Chemicon (Temecula, Calif.). Monoclonal anti-α-synuclein antibodies, SYN-1 and LB509, were from Transduction Laboratories (Lexington, Ky.) and Zymed (South San Francisco, Calif.), respectively. Monoclonal antibody recognizing ε(γ-glutamyl) lysine isodipeptide bonds (81D1C2) was purchased from Covalab (Lyon, France). Recombinant human α-synuclein protein was expressed in pTYB11 and purified by the IMPACT T7 system (New England Biolabs) according to the supplier's instructions.
(§1) COS-7 and human embryonic kidney (HEK) 293T cell lines were maintained in DMEM containing 10% FBS. Transfections were performed by using FuGene 6 reagent (Roche Molecular Biochemicals, Indianapolis, Ind.) for a 6 hour incubation period, and then treatments were initiated.
Cells were lysed in a buffer containing PBS with 1% Triton X-100 and a mixture of protease inhibitors (Roche Molecular Biochemicals). […] Immunoprecipitates were analyzed by Western blots with antiisodipeptide antibody (81D1C2) or anti-α-synuclein antibody SYN-1 with the ECL detection system (NEN, Boston, Mass.). […]

tTGase [2] = molecular target: T1, tTGase; test: tTGase-induced α-synuclein aggregates by immunocytochemistry in transfected HEK293T cells; format: cell-based; details: 48 hours
Method: FIG. 1 depicts α-Synuclein the detection of aggregates by immunocytochemistry. HEK293T cells transiently transfected with α-synuclein in the absence or presence of tTGase were treated with CTM (100 μM, 200 μM) or A23187 (0.1 μg/ml) for 48 hours and stained for α-synuclein and tTGase. Aggregate-containing cells among transfected cells were counted in 10 randomly selected fields. Each microscopic field had 10-20 transfected cells. The data represent means±SEM. Significance levels determined by factorial ANOVA and the Bonferroni post hoc test are shown. *, P<0.002; * *, P<0.06; * * *, P<0.02.
as §1
HEK 293T cells transiently transfected as described in the Examples below were cultured in the presence or absence of indicated chemicals in collagen-coated Biocoat slides (Becton Dickinson, Bedford, Mass.) for 48 hours. […] Cells were washed five times with PBS and analyzed under a fluorescence microscope (Axiophot, Zeiss, Thornwood, N.Y.). For quantification of inclusions, 10 microscopic fields were randomly selected, and the percentage of inclusion-positive cells was counted among transfected cells. […]

guinea pig liver tTGase = molecular target: T2, guinea pig liver tTGase (Cavia cutleri, UniProt P08587); test: In vitro cross-linking reaction of α-synuclein by tTGase (SDS/PAGE, Western blot); format: biochemical; details: 37° C., 2 hours
T2 construct: purified guinea pig liver tTGase (10 nM); purchased Sigma (St. Louis, Mo.); host or cells: guinea pig liver
T2 sequence (P08587 1-690): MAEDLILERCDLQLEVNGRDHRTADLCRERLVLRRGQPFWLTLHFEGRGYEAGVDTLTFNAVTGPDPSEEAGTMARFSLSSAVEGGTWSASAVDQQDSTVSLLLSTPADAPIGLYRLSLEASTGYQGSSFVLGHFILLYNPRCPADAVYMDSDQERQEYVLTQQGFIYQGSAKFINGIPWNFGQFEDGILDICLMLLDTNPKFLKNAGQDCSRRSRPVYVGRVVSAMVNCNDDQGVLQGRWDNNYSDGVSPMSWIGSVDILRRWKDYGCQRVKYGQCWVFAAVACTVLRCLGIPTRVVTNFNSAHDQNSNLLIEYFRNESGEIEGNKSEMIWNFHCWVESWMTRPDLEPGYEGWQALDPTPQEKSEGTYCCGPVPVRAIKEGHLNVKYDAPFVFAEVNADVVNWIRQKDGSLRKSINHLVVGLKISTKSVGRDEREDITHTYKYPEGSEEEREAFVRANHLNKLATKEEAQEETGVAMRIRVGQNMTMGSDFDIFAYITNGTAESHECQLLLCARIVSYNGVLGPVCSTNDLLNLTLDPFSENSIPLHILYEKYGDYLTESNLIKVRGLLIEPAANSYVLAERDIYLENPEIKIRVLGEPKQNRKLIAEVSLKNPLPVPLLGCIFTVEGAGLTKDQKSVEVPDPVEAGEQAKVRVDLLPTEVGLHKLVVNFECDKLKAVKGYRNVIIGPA
Method: Suitable tTGase inhibitor compounds for use in the treatment methods and compositions of the invention can be assessed by straightforward protocols, such as the following. […] The reaction products are then analyzed by standard SDS/PAGE and Western blot using an anti-α-synuclein antibody (e.g., rabbit polyclonal antibodies, available from Sigma or Chemicon (Temecula, Calif.); or monoclonal antibodies such as SYN-1 or LB509, available from Signal Transduction Laboratories (Lexington, Ky.) and Zymed (South San Francisco, Calif.), respectively). […]
The reaction was performed at 37° C. for 2 hours in a buffer containing 50 mM Tris-HCl (pH 7.5), 2 mM leupeptin, and 1 mM purified α-synuclein. […] The reaction was stopped by the addition of 20 mM EDTA, and products were analyzed by SDS/PAGE followed by Western blot.
To study the in vitro cross-linking of α-synuclein, purified recombinant human α-synuclein protein was incubated with guinea pig liver tTGase for 2 hours at 37° C., and the reaction products were analyzed by SDS/PAGE, followed by Western blotting with anti-α-synuclein antibody. […]

[3] = delayed treatment, 200 μM during the final 48 hours of 96 hours, COS-7

SMILES: CNc1ccc2oc(C[C@H]3O[C@@]4(CC[C@H]3C)O[C@H]([C@H](C)C(=O)c3ccc[nH]3)[C@H](C)C[C@H]4C)nc2c1C(=O)O [A23187]
high molecular weight bands of α-synuclein (tTGase [1]; COS-7 cells transfected with only α-synuclein, 0.1 μg/ml): some high molecular weight bands
formation of α-synuclein aggregates (tTGase [1]; α-synuclein- and tTGase-transfected COS-7 cells, 0.1 μg/ml): significant increase
aggregate formation (aggregate-containing cells among transfected cells) (tTGase [2]; HEK293T cells, 0.1 μg/ml): significantly increased

further de novo aggregation occurring during the final 48 hours (tTGase [1]; [3]): inhibited further de novo aggregation
level of aggregates formed during the initial 48 hours (preformed aggregates) (tTGase [1]; [3]): did not diminish
formation of tTGase-induced α-synuclein aggregates (tTGase [1]; α-synuclein- and tTGase-transfected COS-7 cells, 200 μM for 48 hours): dramatically inhibited
inclusion formation (aggregate-containing cells among transfected cells) (tTGase [2]; HEK293T cells coexpressing α-synuclein and tTGase, 100 μM, 200 μM): decreased inclusion formation
SMILES: NCCSSCCN [CTM, cystamine]

SMILES: [Ca+2].[Cl-].[Cl-] [CaCl2]
generation of high molecular weight aggregates of α-synuclein (guinea pig liver tTGase; addition of CaCl2 (5 mM), tTGase 10 nM, DTT 0.1 mM): significantly enhanced

SMILES: O=C(O)CN(CCN(CC(=O)O)CC(=O)O)CC(=O)O [EDTA]
aggregate formation (α-synuclein) (guinea pig liver tTGase; chelation with EDTA (0.1 mM, 5 mM)): dose-dependently blocked

Reference: US20060211624A1, “Methods and compositions for the treatment of parkinson's disease and other alpha-synucleinopathies” (Goverment of the US, as Represented by, priority 2003, published 2006)
